US6541468B1, “Indolocarbazole derivatives useful for the treatment of neurodegenerative diseases and cancer” (Bayer Corporation, priority 1998, dated 2003)
Where two headings read alike, the source gives them in different places.

Key:
[1] = test system: tau hyperphosphorylation; test: Okadaic acid induced AD-like tau hyperphosphorylation in rat hippocampal brain slices; format: cell-based
Description: Adult male Long-Evans rats were subjected to CO2 anesthesia and sacrificed by decapitation. Brains were rapidly removed (<2 min) and whole hippocampus was dissected using a blunt spatula. Hippocampi were cut into […] slices using a Mcllwain tissue chopper and placed into ice cold low Ca^2+ Krebs-Bicarbonate buffer (pH 7.) of the following composition in mM: NaCl, 124; KCL, 3.33; CaCl2, 0.01; KH2PO4, 1.25; MgSO4, 1.33; nAhco3, 25.7; D-glucose, 10; HEPES, 20. The slices were separated and placed, 5-8 per tube, into 5 mL of low Ca^2+ buffer and incubated for at least 30 min at 33-34° C. with water saturated oxygenation (95% O2, 5% CO2). After 30 min the solution was replaced with buffer containing a physiological level of Ca^2+ (1.3 mM) and incubated for an additional 30 min.
After a total equilibration period of at least 1 hr, the slices were pretreated with vehicle or inhibitor at concentrations ranging from 30 nM to 10 μM for 1 hr, and then exposed to either vehicle or okadaic acid fora 90 min. After treatment, the buffer was removed and the slices were sonicated for 10-20 see in 500 μl of homogenization buffer (100 mM KH2PO4, pH 6.5, 2 mM EGTA, 2 mM EDTA, 1 μM okadaic acid and the following protease inhibitors: aprotinin (10 μg/ml); leupeptin (10 μM); chymostatin (40 μM); PMSF (100 μM) and pepstatin (6 μg/ml).
Following sonication, the samples were centrifuged 16,000×g for 30 min and the supernatants were removed. After boiling of the supernatants for 5 mn at 100° C. the concentration of protein was determined by the BCA assay (Pierce) using BSA as standard and samples were normalized to equal protein concentration.
Aliquots of the heat stable supernatants were separated on 10% SDS-PAGE and Western-blotted with phosphorylation-sensitive tau mAb Tau-1 and PHF-tau mAb AT8 as described for SY5Y studies. Blots were developed by an ECL kit (Amersham Life Science). AT8 immunoreactivity was quantitated on Kodak X0OMAT AR film using a Biorad imaging densitometer GS 670, the strongest signals not exceeding an O.D. of 12.

[2] = test system: ERK2 activation; test: Okadaic acid induced ERK2 phosphorylation/activation in SY5Y cells; format: cell-based, human; details: 1 μM okadaic acid; for IC50: Homo sapiens
Description: SKNSH-SY 5Y cells were plated on fibronectin-coated 6 well (30 mm^2) culture dishes (Biocoat®, Collaborative Biomedical Products, Inc.) and grown to confluence in 5 mL of 50% D-MEM/50% F-12 Nutrient Mixture (Ham) supplemented with 15% heat-inactivated bovine serum (JRH Bioscience), 0.1 mM non-essential amino acids solution, 2 mM glutamine and pen/strep/fungizone (GibcoBRL Life Technologies, Inc.). Cell culture medium was changed every 48 hours.
For drug testing, cells were routinely pretreated with inhibitors in 1 mL (30 mm2) for 60 min at concentrations of 30 nM, 100 nM, 300 nM, […]. Compound stocks were all at 10 mM in DMSO and dilutions were made in DMSO. Cells were then treated with 1 μM okadaic acid (ammonium salt; LC Laboratories, dissolved at 1 mM in DMSO) for 90 min. All experiments, including controls, contained a final concentration of between 0.5 and 1% DMSO.
Cells were detached from 30 mm^2 plates and suspended into 1 mL of ice-cold PBS by gentle trituration, transferred into microcentrifuge tubes and sedimented for 12 seconds at 14,000×g. […] Cell debris was removed by centrifugation at 14,000×g for 5 minutes at 4° C. and cell supernatants were analyzed by anti-ERK2 and anti-tau Western-blotting as described below.
[…] of total cell lysate was run on a 10% tris-glycine polyacrylamide gels (Novex, 1.5 mm×10 well) at 100 volts for 2.5 hors and Western-blotted on nitrocellulose (Novex) overnight at 23 volts or 1.5 hrs at 100V in transfer buffer [Towbin et al. Proc. Natl. Acad. Sci. USA 76, 4350-4354 (1979]) at 4° C. Blots were analyzed for ERK2 and phosphotyrosine immunoreactivity with anti-ERK1+2 (Z033; Zymed Laboratories, Inc.; 1:5,000) and anti-phosphotyrosine (4G10; Upstate Biotechnology Inc.; 1:1,000) mAbs. Blots were also analyzed for phosphorylation-sensitive Tau immuno-reactivity with mAb Tau-1 (Boehringer Mannheim; 1:5,000) and phosphorylation dependent mAb AT8 against FHF-tau (Biosource International; 1:200). Total Tau populations were detected by Tau-1 immunoblotting after treating blots for 16 hrs at 37° C. with 100 units/mL alkaline phosphatase (Gibco BRL) in 5 mL of 50 mM Tris-HCI (pH 8.5), 0.1 mM EDTA. All blots were developed using ECL (enhanced chemiluminescence) Western blotting protocol (Amersham Life Science) with horseradish peroxidase-linked sheep anti-mouse secondary antibody and analyzed on Kodak X-OMAT AR scientific imaging film. […] Changes in tau phosphorylation were assessed by normalizing densitometrically determined mAb Tau-1 immunoreactivities in cell extracts to Tau-1 reaction after dephosphorylation on the blot. […]

[3] = adult rat hippocampal slices, means of triplicate determinations, read-out: Inhibition of tau hyperphos. in brain slices IC50
[4] = SY5Y, means of triplicate determinations, read-out: Inhibition in SY5Y cells of ERK2 activation IC50

Row | Compound | IC50 [1, 3] [nM] | IC50 [2, 4] [nM] | IC50 ([2]; SY5Y cells, read-out: IC50 for prevention of okadaic acid induced ERK2 phosphorylation/activation (FIG. 4)) [nM] | Concentration at which prevention of ERK2 phosphorylation/activation is complete ([2]; SY5Y cells) [µM] | IC50 ([1]; adult rat hippocampal brain slices, FIG. 5, read-out: IC50 for prevention of tau hyperphosphorylation in brain slices) [nM]
1 | COC(=O)[C@@]1(O)C[C@H]2C[C@@H]1n1c3ccccc3c3c4c(c5c6ccccc6n2c5c31)C(=O)NC4=O (relative stereo) [CIII, 9,12-Methano-1H-diindolo[1,2,3-fg:3′,2′,1′-kl]pyrrolo[3,4-I][1,6] benzodiazocine-10-carboxylic acid, 2,3,9,10,11,12-hexahydro-10-hydroxy-1,3-dioxomethyl ester, (9α,10β,12α)] | 900 | 5700 | ~1000 | 10 | 
2 | CNC(=O)[C@]1(O)CC2CC1n1c3ccccc3c3c4c(c5c6ccccc6n2c5c31)C(=O)NC4=O (stereo partly drawn) [CII, 9,12-Methano-1H-diindolo[1,2,3-fg:3′,2′,1′-kl]pyrrolo[3,4-I][1,6] benzodiazocine-10-carboxamide, 2,3,9,10,11,12-hexahydro-10-hydroxy-N-methyl-1,3-dioxo-(9α,10β,12α)] | 180 | 570 |  |  | 100
